# Assays:
# glioma cells = details: Ishiuchi et al., 2002; cited from earlier work
# rat C6 glioma cell line [1] = experiment: Determination of Ca2+ permeability (Fura-2 AM, glutamate-induced Ca2+ increase); type: cell-based; details: 50 μM to 400 μM TMP, 24 hours; 200 μM glutamate for 20 seconds; p<0.05 vs control; FIG. 2
# Protocol: (§1) The rat C6 glioma cell line was purchased from the Food Industry Research and Development Institute, Taiwan. The cell culture within the tubes was transferred into a 15 ml centrifugation tube and centrifuged at 900 rpm for 3 minutes. Resulted supernatant was removed and 4 ml 10% FBS-DMEM was added to the centrifugation tube and sufficiently mixed with the cell pellet. The cells were counted and cultured in a 24-well plate (2×10^4 cells per well) for subsequent in vitro experiments.
# (§2) The cultured C6 glioma cells were treated with TMP (Fluka, F-87915) at final concentrations of 50 μM, 100 μM, 200 μM, and 400 μM for 24 hours.
# The TMP-treated glioma cells were washed with running buffer for three times, put in a 5 μM Fura-2 AM solution for 30 minutes, and treated with 200 μM glutamate for 20 seconds. The change of Ca^2+ concentration within glioma cells was observed on a fluorescence microscope (IX-70, Olympus, Japan).
# [2] = Pang et al., 1996; cited from earlier work
# neurons = details: through protecting mitochondria and inhibiting free radical generation; Shih et al, 2002; cited from earlier work
# rat C6 glioma cell line [3] = experiment: Determination of cell cycle (PI staining, flow cytometry); type: cell-based; details: 400 μM TMP, 24 hours; p<0.05 vs control; FIG. 3
# Protocol: as §1, §2
# The TMP-treated glioma cells were treated with trypsin/EDTA (Biochrom AG, L-2153), shaken off, collected in a 15 ml centrifugation tube, and centrifuged at 900 rpm for 3 minutes. The resulting supematant was removed and 1 ml PI solution (50 μg/ml PI, 0.1% sodium citrate, and 0.1% Triton X-100) was added. After one hour of dark incubation at room temperature, the intensity of PI fluorescence was read by flow cytometry (FACSort). In the G2/M phase, DNA has been replicated, and thus the intensity of PI fluorescence of cells in the G2/M phase should be two times of that of cells in the G1 phase.
# [4] = Tsai and Liang, 2001; cited from earlier work
# rat C6 glioma cell line [5] = experiment: Determination of cell death by propidium iodide fluorescence (flow cytometry); type: cell-based; details: 200 μM and 400 μM TMP, 24 hours; p<0.05 vs control; FIG. 1
# Protocol: as §1, §2
# The degree of damage to glioma cells was measured as the intensity of propidium iodide (PI) fluorescence. PI is a fluorescent dye that binds DNA, with an excitation wavelength of 485 nm and an emission wavelength of 620 nm. When a cell is damaged, the permeability of the cell membrane is increased and PI can enter the cell to bind DNA.
# The TMP-treated glioma cells were treated with 5 ng/ml PI (Molecular Probes, P-1304) for 1 hour, and then washed with 0.1 M PBS. The intensity of PI fluorescence was read by flow cytometry (FACSort).
# [6] = system: glioma cells implanted in frontal cortex of Sprague-Dawley rats; experiment: Activity of glioma by micro positron emission tomography (18F-FDG); type: in vivo; details: 15th day following implantation; one rat; TMP from the 8th day; highly activated tumor still exists in control rat; FIG. 6 D to F
# Protocol: (§3) Sprague-Dawley (S.D.) rats obtained from the Animal Center of National Yang-Ming University were kept in the following conditions: 12 hours of artificial lightening per day; 22±2° C. air conditioning; sufficient water and food. Eight-week old female rats, weighing 250 to 300 g, were used in the experiments.
# (§4) The rats were anesthetized with chloride hydrate (400 mg/Kg, i.p.) and immobilized on a stereotaxic apparatus (Narishige, Japan). The skin on the head was cut with scissors to expose the skull. Bregma was found as the reference point for the location of microinjection (three-dimensional orientation point: A: 0.7 mm, L; 2.0 mm, H: 2.0 mm). The location was marked with a pen, and the skull at the location was drilled with a drill. Glioma cells (10^6 cells) were injected (2 μl/3 mins; total 10 μl) into the frontal cortex of the left brain of the rats with a microinjector.
# (§5) The rats were divided into two groups. […] The rats of the TMP group received TMP treatment (0.4 mg, subcutaneous injection, twice a day) from the 8th day following the implantation. The survival days of rats of the two groups were recorded.
# To determine the activity of glioma cells in the rats, the activity profiles of the tumors were obtained by micro positron emission tomography (micro PET) on the 8th and 15th day following the implantation of glioma cells. […]
# [7] = system: glioma cells implanted in frontal cortex of Sprague-Dawley rats; experiment: Survival time of rats implanted with glioma cells; type: in vivo, rat; details: 0.4 mg subcutaneous twice a day from the 8th day following implantation
# Protocol: as §3, §4, §5
SMILES,proliferation of glioma cells (glioma cells),Ca2+ concentration within glioma cells resulting from treatment with glutamate (rat C6 glioma cell line [1]),increase of the concentration of calcium [2],excitotoxicity to neurons induced by kainite (neurons),ratio of cells in the G2/M phase (rat C6 glioma cell line [3]),crossing of the blood-brain barrier [4],damage to glioma cells (intensity of PI fluorescence) (rat C6 glioma cell line [5]),micro PET image of tumor activity [6],"survival time following implantation, half of the rats of the TMP group ([7]; FIG. 4(B)) [days]","survival time following implantation, all rats of the TMP group ([7]; control rats died after 15 to 22 days, FIG. 4)"
C[C@]12N[C@H](Cc3ccccc31)c1ccccc12 [MK801],can effectively inhibit the proliferation of glioma cells,,,,,,,,,
"Cc1nc(C)c(C)nc1C [TMP, tetramethylpyrazine]",,effectively reduced Ca^2+ concentration within glioma cells,can inhibit the increase of the concentration of calcium,can reduce the excitotoxicity to neurons induced by kainite,effectively reduced the ratio of cells in the G2/M phase,can cross the blood-brain barrier,resulted in glioma cell death,no image of a highly activated tumor,40,at least 22 days

# — patent US7091205B2, “Use of tetramethylpyrazine in the treatment of brain tumor” (priority 2004, dated 2006)
